Assays:
Assay type in all cases: in vivo
[1] = test system: monocotyledonous and dicotyledonous weed plants; experiment: Pre-emergence herbicidal action (greenhouse pot test); details: pre-emergence method; application rate of 0.5 kg and less of active substance per hectare; Sinapis alba, Chrysanthemum segetum, Avena sativa, Stellaria media, Echinochloa crus-galli, Lolium multiflorum, Setaria spp., Abutilon theophrasti, Amaranthus retrofluxus, Panicum miliaceum
Text: Seeds or rhizome pieces of monocotyledonous and dicotyledonous weed plants are placed in sandy loam in plastic pots and covered with soil. The compounds according to the invention, which are formulated in the form of wettable powders or emulsion concentrates, are then applied to the surface of the soil cover as aqueous suspension or emulsion at various dosages with an application rate of 600 to 800 l of water/ha (converted).
After the treatment, the pots are placed into a greenhouse and kept under good growth conditions for the weeds. The plant or emergence damage is scored visually after the untreated controls have emerged. As shown by the test results, the compounds according to the invention have good herbicidal pre-emergence activity against a broad spectrum of weed grasses and broad-leaved weeds.

[2] = test system: monocotyledonous and dicotyledonous weeds; experiment: Post-emergence herbicidal action (greenhouse pot test); details: post-emergence method; application rate of 0.5 kg or less of active substance per hectare; scored after approx. 3 to 4 weeks; Sinapis alba, Echinochloa crus-galli, Lolium multiflorum, Chrysanthemum segetum, Setaria spp., Abutilon theophrasti, Amaranthus retroflexus, Panicum miliaceum, Avena sativa
Description: Seeds or rhizone pieces of monocotyledonous and dicotyledonous weeds are placed in sandy loam in plastic pots, covered with soil and grown in the greenhouse under good growth conditions. Three weeks after sowing, the test plants are treated at the three-leaf stage. Various dosages of the compounds according to the invention, which are formulated as wettable powders or emulsion concentrates, are sprayed onto the green plant parts at an application rate of 600 to 800 l of water per ha (converted), and after the test plants have been left to stand in the greenhouse for approx. 3 to 4 weeks under optimum growth conditions, the effect of the preparations is scored visually by comparison with untreated controls. The compositions according to the invention also have good herbicidal post-emergence activity against a broad spectrum of economically important weed grasses and broad-leaved weeds.

[3] = test system: harmful plants which are typical for rice crops; experiment: Action against harmful plants in rice (paddy rice conditions); details: applied to the paddy water; approximately three weeks after application; Cyperus monti, Echinochloa crus-galli, Eleocharis acicularis, Sagittaria pygmaea; note: test concentration or dose not given here
Description: Transplanted and seeded rice and typical rice weeds are grown in the greenhouse until they have reached the three-leaf stage (Echinochloa 1.5-leaves) under paddy rice conditions (flooding level of the water: 2-3 cm) in closed plastic pots. They are then treated with the compounds according to the invention. To this end, the formulated active substances are suspended, dissolved or emulsified in water and applied to the paddy water of the test plants at various dosages by application by pouring.
After the treatment has been carried out in this way, the test plants are placed into the greenhouse under optimum growth conditions and are kept in this way over the entire experimental period.

crop plants = experiment: Crop plant tolerance (greenhouse, pre- and post-emergence); details: visual scoring four to five weeks after application
Description: In further greenhouse experiments, seeds of a relatively large number of crop plants and weeds are placed in sandy loam and covered with soil. Some of the pots are treated immediately as described in Section 1, while the remaining pots are placed in the greenhouse until the plants have developed two to three real leaves, and they are then sprayed with various dosages of substances of the formula (I) according to invention as described in Section 2. Four to five weeks after the application and standing time in the greenhouse, it is found by means of visual scoring that the compounds according to the invention leave dicotyledonous crops such as, for example, soybeans, cotton, oilseed rape, sugar beet and potatoes unharmed when applied pre- and post-emergence, even at high rates of active compound. In addition, some substances also leave graminaceous crops such as, for example, barley, wheat, rye, sorghum, corn or rice, unharmed.

## CC1Cc2cc(Cl)ccc2C1Nc1ncnc(N)n1 (stereo not drawn) [Example 58]
[1]
  herbicidal action against harmful plants, scored visually: very good herbicidal action
[2]
  herbicidal action against harmful plants, scored visually: very good herbicidal action
[3]
  herbicidal action against harmful plants typical for rice crops, scored visually: very good herbicidal action
Crop plants
  selectivity (crop plants versus weeds): in some cases high selectivity

## Cc1cc(C)c2c(c1)C(Nc1ncnc(N)n1)CCC2 (stereo not drawn) [Example 1]
[1]
  herbicidal action against harmful plants, scored visually: very good herbicidal action
[2]
  herbicidal action against harmful plants, scored visually: very good herbicidal action
[3]
  herbicidal action against harmful plants typical for rice crops, scored visually: very good herbicidal action
Crop plants
  selectivity (crop plants versus weeds): in some cases high selectivity

## Cc1ccc2c(c1)C(Nc1ncnc(N)n1)C(C)C2 (stereo not drawn) [Example 281]
[1]
  herbicidal action against harmful plants, scored visually: very good herbicidal action
[2]
  herbicidal action against harmful plants, scored visually: very good herbicidal action
[3]
  herbicidal action against harmful plants typical for rice crops, scored visually: very good herbicidal action
Crop plants
  selectivity (crop plants versus weeds): in some cases high selectivity

## Cc1cc(C)c2c(c1)C(Nc1ncnc(N)n1)CCO2 (stereo not drawn) [Example 4]
[1]
  herbicidal action against harmful plants, scored visually: very good herbicidal action
[2]
  herbicidal action against harmful plants, scored visually: very good herbicidal action
[3]
  herbicidal action against harmful plants typical for rice crops, scored visually: very good herbicidal action
Crop plants
  selectivity (crop plants versus weeds): in some cases high selectivity

## Cc1ccc2c(c1)C(Nc1ncnc(N)n1)C(C)(C)C2 (stereo not drawn) [Example 292]
[1]
  herbicidal action against harmful plants, scored visually: very good herbicidal action
[2]
  herbicidal action against harmful plants, scored visually: very good herbicidal action
[3]
  herbicidal action against harmful plants typical for rice crops, scored visually: very good herbicidal action
Crop plants
  selectivity (crop plants versus weeds): in some cases high selectivity

## Cc1cc(F)cc2c1OCCC2Nc1ncnc(N)n1 (stereo not drawn) [Example 288]
[1]
  herbicidal action against harmful plants, scored visually: very good herbicidal action
[2]
  herbicidal action against harmful plants, scored visually: very good herbicidal action
[3]
  herbicidal action against harmful plants typical for rice crops, scored visually: very good herbicidal action
Crop plants
  selectivity (crop plants versus weeds): in some cases high selectivity

## Nc1ncnc(NC2CCc3ccccc32)n1 (stereo not drawn) [Example 185]
[1]
  herbicidal action against harmful plants, scored visually: very good herbicidal action
[2]
  herbicidal action against harmful plants, scored visually: very good herbicidal action
[3]
  herbicidal action against harmful plants typical for rice crops, scored visually: very good herbicidal action
Crop plants
  selectivity (crop plants versus weeds): in some cases high selectivity

## Cc1cc2c(cc1C)C(Nc1ncnc(N)n1)C(C)C2 (stereo not drawn) [Example 293]
[1]
  herbicidal action against harmful plants, scored visually: very good herbicidal action
[2]
  herbicidal action against harmful plants, scored visually: very good herbicidal action
[3]
  herbicidal action against harmful plants typical for rice crops, scored visually: very good herbicidal action
Crop plants
  selectivity (crop plants versus weeds): in some cases high selectivity

## CCC1Cc2ccc(C)cc2C1Nc1ncnc(N)n1 (stereo not drawn) [Example 291]
[1]
  herbicidal action against harmful plants, scored visually: very good herbicidal action
[2]
  herbicidal action against harmful plants, scored visually: very good herbicidal action
[3]
  herbicidal action against harmful plants typical for rice crops, scored visually: very good herbicidal action
Crop plants
  selectivity (crop plants versus weeds): in some cases high selectivity

## Cc1ccc2c(c1)C(Nc1ncnc(N)n1)CC2 (stereo not drawn) [Example 146]
[1]
  herbicidal action against harmful plants, scored visually: very good herbicidal action
[2]
  herbicidal action against harmful plants, scored visually: very good herbicidal action
[3]
  herbicidal action against harmful plants typical for rice crops, scored visually: very good herbicidal action
Crop plants
  selectivity (crop plants versus weeds): in some cases high selectivity

## Cc1ccc2c(c1C)CCCC2Nc1ncnc(N)n1 (stereo not drawn) [Example 19]
[1]
  herbicidal action against harmful plants, scored visually: very good herbicidal action
[2]
  herbicidal action against harmful plants, scored visually: very good herbicidal action
[3]
  herbicidal action against harmful plants typical for rice crops, scored visually: very good herbicidal action
Crop plants
  selectivity (crop plants versus weeds): in some cases high selectivity

## Cc1cc(C)c2c(c1)C(Nc1ncnc(N)n1)CCS2 (stereo not drawn) [Example 79]
[1]
  herbicidal action against harmful plants, scored visually: very good herbicidal action
[2]
  herbicidal action against harmful plants, scored visually: very good herbicidal action
[3]
  herbicidal action against harmful plants typical for rice crops, scored visually: very good herbicidal action
Crop plants
  selectivity (crop plants versus weeds): in some cases high selectivity

## Cc1cccc2c1OCCC2Nc1ncnc(N)n1 (stereo not drawn) [Example 5]
[1]
  herbicidal action against harmful plants, scored visually: very good herbicidal action
[2]
  herbicidal action against harmful plants, scored visually: very good herbicidal action
[3]
  herbicidal action against harmful plants typical for rice crops, scored visually: very good herbicidal action
Crop plants
  selectivity (crop plants versus weeds): in some cases high selectivity

## Nc1ncnc(NC2CCOc3ccc(F)cc32)n1 (stereo not drawn) [Example 289]
[1]
  herbicidal action against harmful plants, scored visually: very good herbicidal action
[2]
  herbicidal action against harmful plants, scored visually: very good herbicidal action
[3]
  herbicidal action against harmful plants typical for rice crops, scored visually: very good herbicidal action
Crop plants
  selectivity (crop plants versus weeds): in some cases high selectivity

## CC1Cc2cc(F)ccc2C1Nc1ncnc(N)n1 (stereo not drawn) [Example 55]
[1]
  herbicidal action against harmful plants, scored visually: very good herbicidal action
[2]
  herbicidal action against harmful plants, scored visually: very good herbicidal action
[3]
  herbicidal action against harmful plants typical for rice crops, scored visually: very good herbicidal action
Crop plants
  selectivity (crop plants versus weeds): in some cases high selectivity

## CC1Cc2ccc(F)cc2C1Nc1ncnc(N)n1 (stereo not drawn) [Example 282]
[1]
  herbicidal action against harmful plants, scored visually: very good herbicidal action
[2]
  herbicidal action against harmful plants, scored visually: very good herbicidal action
[3]
  herbicidal action against harmful plants typical for rice crops, scored visually: very good herbicidal action
Crop plants
  selectivity (crop plants versus weeds): in some cases high selectivity

## Cc1cccc2c1C(Nc1ncnc(N)n1)C(C)C2 (stereo not drawn) [Example 290]
[1]
  herbicidal action against harmful plants, scored visually: very good herbicidal action
[2]
  herbicidal action against harmful plants, scored visually: very good herbicidal action
[3]
  herbicidal action against harmful plants typical for rice crops, scored visually: very good herbicidal action
Crop plants
  selectivity (crop plants versus weeds): in some cases high selectivity

## CC1Cc2ccc(F)cc2C1Nc1ncnc(NC(=O)CCl)n1 (stereo not drawn) [Example 286]
[1]
  herbicidal action against harmful plants, scored visually: very good herbicidal action
[2]
  herbicidal action against harmful plants, scored visually: very good herbicidal action
[3]
  herbicidal action against harmful plants typical for rice crops, scored visually: very good herbicidal action
Crop plants
  selectivity (crop plants versus weeds): in some cases high selectivity

## CC(=O)Nc1ncnc(NC2c3cc(F)ccc3CC2C)n1 (stereo not drawn) [Example 283]
[1]
  herbicidal action against harmful plants, scored visually: very good herbicidal action
[2]
  herbicidal action against harmful plants, scored visually: very good herbicidal action
[3]
  herbicidal action against harmful plants typical for rice crops, scored visually: very good herbicidal action
Crop plants
  selectivity (crop plants versus weeds): in some cases high selectivity

## CC1Cc2ccc(F)cc2C1Nc1ncnc(NC(=O)C(F)(F)F)n1 (stereo not drawn) [Example 285]
[1]
  herbicidal action against harmful plants, scored visually: very good herbicidal action
[2]
  herbicidal action against harmful plants, scored visually: very good herbicidal action
[3]
  herbicidal action against harmful plants typical for rice crops, scored visually: very good herbicidal action
Crop plants
  selectivity (crop plants versus weeds): in some cases high selectivity

## CC1Cc2ccccc2C1Nc1ncnc(N)n1 (stereo not drawn) [Example 198]
[1]
  herbicidal action against harmful plants, scored visually: very good herbicidal action
[2]
  herbicidal action against harmful plants, scored visually: very good herbicidal action
[3]
  herbicidal action against harmful plants typical for rice crops, scored visually: very good herbicidal action
Crop plants
  selectivity (crop plants versus weeds): in some cases high selectivity
